Measurements as given in the NIST ThermoML archive (doi:10.1021/je800837z).
Numbers after ± are expanded uncertainties.

Conditions: Crystal; DTA

Work on `CCN1CCN(C(=O)N[C@H](C(=O)N[C@H]2C(=O)N3C(C(=O)[O-])=C(CSc4nnnn4C)CS[C@@H]23)c2ccc(O)cc2)C(=O)C1=O.[Na+]` yielded a Normal melting temperature of 180.00 ± 1.1 °C.
